Measurements as given in the NIST ThermoML archive (doi:10.1021/je700152c).

Experiment: molar heat capacity at saturation pressure; xn = mol fraction of the nth substance listed

CCCCn1cc[n+](C)c1.Cc1ccc(S(=O)(=O)[O-])cc1 [1-butyl-3-methylimidazolium tosylate] + O
Conditions | molar heat capacity [J/K/mol]
294.67 K, Crystal, x1 = 0.3 | 204.91
294.68 K, Crystal, x1 = 0.83 | 580.85
294.91 K, Crystal, x1 = 0.37 | 561.1
295.64 K, Crystal, x1 = 0.37 | 590.88
295.82 K, Liquid, x1 = 0.3 | 198.57
296.25 K, Crystal, x1 = 0.83 | 574.07
296.33 K, Crystal, x1 = 0.37 | 593.15
296.53 K, Metastable crystal, x1 = 0.83 | 425.47
296.97 K, Liquid, x1 = 0.3 | 199.1
297.06 K, Crystal, x1 = 0.37 | 577.63
297.82 K, Crystal, x1 = 0.37 | 542.42
297.88 K, Crystal, x1 = 0.83 | 481.52
298.13 K, Liquid, x1 = 0.3 | 199.52
298.45 K, Metastable crystal, x1 = 0.83 | 435.64
298.66 K, Crystal, x1 = 0.37 | 429.59
299.28 K, Liquid, x1 = 0.3 | 199.84
299.67 K, Crystal, x1 = 0.83 | 439.03
299.68 K, Crystal, x1 = 0.37 | 268.68
300.26 K, Metastable crystal, x1 = 0.83 | 440.59
301.01 K, Liquid, x1 = 0.3 | 200.58
301.5 K, Crystal, x1 = 0.83 | 445.81
301.5 K, Liquid, x1 = 0.37 | 233.85
302.51 K, Metastable crystal, x1 = 0.83 | 454.93
303.31 K, Crystal, x1 = 0.83 | 454.15
303.34 K, Liquid, x1 = 0.3 | 201.21
304 K, Liquid, x1 = 0.37 | 232.59
305.11 K, Crystal, x1 = 0.83 | 462.49
305.64 K, Liquid, x1 = 0.3 | 201.95
306.39 K, Metastable crystal, x1 = 0.83 | 484.39
306.5 K, Liquid, x1 = 0.37 | 233.6
306.89 K, Crystal, x1 = 0.83 | 471.88
307.94 K, Liquid, x1 = 0.3 | 202.8
308.65 K, Crystal, x1 = 0.83 | 484.39
309 K, Liquid, x1 = 0.37 | 234.48
309.82 K, Metastable crystal, x1 = 0.83 | 516.2
310.24 K, Liquid, x1 = 0.3 | 203.54
310.39 K, Crystal, x1 = 0.83 | 497.69
311.5 K, Liquid, x1 = 0.37 | 235.37
312.09 K, Crystal, x1 = 0.83 | 512.81
312.54 K, Liquid, x1 = 0.3 | 204.38
313.06 K, Metastable crystal, x1 = 0.83 | 550.87
313.75 K, Crystal, x1 = 0.83 | 529.23
313.99 K, Liquid, x1 = 0.37 | 236.25
314.83 K, Liquid, x1 = 0.3 | 205.13
315.4 K, Crystal, x1 = 0.83 | 549.31
316.18 K, Metastable crystal, x1 = 0.83 | 596.49
316.49 K, Liquid, x1 = 0.37 | 237.13
317.02 K, Crystal, x1 = 0.83 | 571.21
317.13 K, Liquid, x1 = 0.3 | 205.87
318.6 K, Crystal, x1 = 0.83 | 596.23
318.98 K, Liquid, x1 = 0.37 | 238.14
319.16 K, Metastable crystal, x1 = 0.83 | 653.33
319.42 K, Liquid, x1 = 0.3 | 206.82
320.13 K, Crystal, x1 = 0.83 | 624.39
321.47 K, Liquid, x1 = 0.37 | 239.03
321.62 K, Crystal, x1 = 0.83 | 655.93
321.7 K, Liquid, x1 = 0.3 | 207.45
321.99 K, Metastable crystal, x1 = 0.83 | 719.81
323.06 K, Crystal, x1 = 0.83 | 690.35
323.96 K, Liquid, x1 = 0.37 | 239.91
323.99 K, Liquid, x1 = 0.3 | 208.19
324.46 K, Crystal, x1 = 0.83 | 727.63
324.62 K, Metastable crystal, x1 = 0.83 | 811.31
325.81 K, Crystal, x1 = 0.83 | 774.82
326.27 K, Liquid, x1 = 0.3 | 209.04
326.44 K, Liquid, x1 = 0.37 | 240.92
327.04 K, Metastable crystal, x1 = 0.83 | 934.11
327.1 K, Crystal, x1 = 0.83 | 828.52
328.33 K, Crystal, x1 = 0.83 | 892.65
328.55 K, Liquid, x1 = 0.3 | 209.99
328.93 K, Liquid, x1 = 0.37 | 241.8
329.23 K, Metastable crystal, x1 = 0.83 | 1093.4
329.5 K, Crystal, x1 = 0.83 | 965.13
330.61 K, Crystal, x1 = 0.83 | 1053
330.82 K, Liquid, x1 = 0.3 | 210.94
331.17 K, Metastable crystal, x1 = 0.83 | 1295.7
331.41 K, Liquid, x1 = 0.37 | 242.69
331.64 K, Crystal, x1 = 0.83 | 1141.9
332.6 K, Crystal, x1 = 0.83 | 1224.8
332.82 K, Metastable crystal, x1 = 0.83 | 1513.7
333.09 K, Liquid, x1 = 0.3 | 212.21
333.26 K, Crystal, x1 = 0.83 | 1386.4
333.89 K, Liquid, x1 = 0.37 | 243.57
334.14 K, Crystal, x1 = 0.83 | 1617.9
334.32 K, Metastable crystal, x1 = 0.83 | 1881.5
335.19 K, Crystal, x1 = 0.83 | 1296.5
335.35 K, Liquid, x1 = 0.3 | 213.8
336.19 K, Crystal, x1 = 0.83 | 1133.3
336.37 K, Liquid, x1 = 0.37 | 244.45
336.41 K, Metastable crystal, x1 = 0.83 | 678.36
337.35 K, Crystal, x1 = 0.83 | 711.99
337.61 K, Liquid, x1 = 0.3 | 215.06
338.19 K, Crystal, x1 = 0.83 | 480.74
338.85 K, Liquid, x1 = 0.37 | 245.21
339.63 K, Liquid, x1 = 0.83 | 464.32
339.88 K, Liquid, x1 = 0.3 | 213.58
340.02 K, Liquid, x1 = 0.83 | 459.1
341.32 K, Liquid, x1 = 0.37 | 246.09
341.87 K, Liquid, x1 = 0.83 | 460.41
342.14 K, Liquid, x1 = 0.3 | 213.58
342.82 K, Liquid, x1 = 0.83 | 461.71
343.71 K, Liquid, x1 = 0.83 | 461.71
343.8 K, Liquid, x1 = 0.37 | 246.98
344.41 K, Liquid, x1 = 0.3 | 214.32
345.56 K, Liquid, x1 = 0.83 | 462.75
345.93 K, Liquid, x1 = 0.83 | 463.79
346.27 K, Liquid, x1 = 0.37 | 247.86
346.67 K, Liquid, x1 = 0.3 | 214.96
347.4 K, Liquid, x1 = 0.83 | 464.06
348.75 K, Liquid, x1 = 0.37 | 248.62
348.93 K, Liquid, x1 = 0.3 | 215.7
349.04 K, Liquid, x1 = 0.83 | 465.88
349.25 K, Liquid, x1 = 0.83 | 465.36
351.1 K, Liquid, x1 = 0.83 | 466.66
351.19 K, Liquid, x1 = 0.3 | 216.44
351.22 K, Liquid, x1 = 0.37 | 249.38
352.16 K, Liquid, x1 = 0.83 | 467.97
352.94 K, Liquid, x1 = 0.83 | 467.71
353.44 K, Liquid, x1 = 0.3 | 217.07
353.69 K, Liquid, x1 = 0.37 | 250.51
354.79 K, Liquid, x1 = 0.83 | 469.01
355.28 K, Liquid, x1 = 0.83 | 469.79
355.69 K, Liquid, x1 = 0.3 | 217.81
356.16 K, Liquid, x1 = 0.37 | 251.4
356.63 K, Liquid, x1 = 0.83 | 470.31
357.94 K, Liquid, x1 = 0.3 | 218.55
358.39 K, Liquid, x1 = 0.83 | 471.88
358.47 K, Liquid, x1 = 0.83 | 471.62
358.63 K, Liquid, x1 = 0.37 | 252.4
360.18 K, Liquid, x1 = 0.3 | 219.19
360.31 K, Liquid, x1 = 0.83 | 472.92
361.09 K, Liquid, x1 = 0.37 | 253.04
361.5 K, Liquid, x1 = 0.83 | 473.7
362.15 K, Liquid, x1 = 0.83 | 474.22
362.42 K, Liquid, x1 = 0.3 | 219.82
363.55 K, Liquid, x1 = 0.37 | 253.92
363.99 K, Liquid, x1 = 0.83 | 475.27
364.61 K, Liquid, x1 = 0.83 | 475.79
364.66 K, Liquid, x1 = 0.3 | 220.25
365.82 K, Liquid, x1 = 0.83 | 476.31
366 K, Liquid, x1 = 0.37 | 254.68
366.89 K, Liquid, x1 = 0.3 | 221.09
367.72 K, Liquid, x1 = 0.83 | 477.87
368.46 K, Liquid, x1 = 0.37 | 255.69
